Reference: US20260232767A1, “INTERLEUKIN-23 RECEPTOR ANTAGONIST PEPTIDES FOR USE IN THE TREATMENT OF PSORIASIS” (Janssen Pharmaceutica NV, priority 2023, published 2026)

Tested on: subjects with moderate-to-severe plaque psoriasis
Assay: Safety, adverse events, Example 2 through Week 56
Type: in vivo, human
Description: The LTE safety analysis was based on randomized participants in Example who entered the present long-term extension study and received at least one dose of study intervention (including a partial dose) during the study period.

[1] = 100 mg QD, Week 16 through Week 56
[2] = 100 mg QD, LTE Safety analysis set

CC(=O)NCCCC[C@@H]1NC(=O)[C@H](Cc2c[nH]c3c(C)cccc23)NC(=O)[C@H]([C@@H](C)O)NC(=O)[C@H](CC(N)=O)NC(=O)[C@@H](NC(C)=O)C(C)(C)SSC(C)(C)[C@@H](C(=O)N[C@@H](Cc2ccc(OCCN)cc2)C(=O)N[C@@H](Cc2ccc3ccccc3c2)C(=O)NC2(C(=O)N[C@@H](CCC(=O)O)C(=O)N[C@@H](CC(N)=O)C(=O)N[C@@H](Cc3cccnc3)C(=O)N(C)CC(N)=O)CCOCC2)NC1=O [IL-23 receptor antagonist peptide, Ac-[Pen]*-N-T-[W(7-Me)]-[Lys(Ac)]-[Pen]*-Phe[4-(2-aminoethoxy)]-[2-Nal]-[THP]-E-N-[3-Pal]-Sarc-NH2 (*[Pen]-[Pen]* formdisulfidebond)]
Rhinorrhoea: % of subjects (100 mg BID, through Week 56): (2.4%)
Rhinorrhoea: number of subjects (100 mg BID, through Week 56): 1
Seasonal allergy: % of subjects (100 mg BID, through Week 56): (2.4%)
Seasonal allergy: number of subjects (100 mg BID, through Week 56): 1
Skin and subcutaneous tissue disorders: % of subjects (100 mg BID, through Week 56): (7.1%)
Skin and subcutaneous tissue disorders: number of subjects (100 mg BID, through Week 56): 3
Skin laceration: number of subjects (100 mg BID, through Week 56): 0
Skin papilloma: % of subjects (100 mg BID, through Week 56): (2.4%)
Skin papilloma: number of subjects (100 mg BID, through Week 56): 1
Social circumstances: number of subjects (100 mg BID, through Week 56): 0
Steatohepatitis: number of subjects (100 mg BID, through Week 56): 0
Subjects with AE leading to discontinuation: Abdominal pain (100 mg BID, through Week 56): 0
Subjects with AE leading to discontinuation: Alanine aminotransferase increased (100 mg BID, through Week 56): 0
Subjects with AE leading to discontinuation: Aspartate aminotransferase increased (100 mg BID, through Week 56): 0
Subjects with AE leading to discontinuation: Asthenia (100 mg BID, through Week 56): 0
Subjects with AE leading to discontinuation: Chills (100 mg BID, through Week 56): 0
Subjects with AE leading to discontinuation: Ear and labyrinth disorders (100 mg BID, through Week 56): 0
Subjects with AE leading to discontinuation: Gamma-glutamyltransferase increased (100 mg BID, through Week 56): 0
Subjects with AE leading to discontinuation: General disorders and administration site conditions (100 mg BID, through Week 56): 0
Subjects with AE leading to discontinuation: Headache (100 mg BID, through Week 56): 0
Subjects with AE leading to discontinuation: Insomnia (100 mg BID, through Week 56): 0
Subjects with AE leading to discontinuation: Investigations (100 mg BID, through Week 56): 0
Subjects with AE leading to discontinuation: Nausea (100 mg BID, through Week 56): 0
Subjects with AE leading to discontinuation: Nervous system disorders (100 mg BID, through Week 56): 0
Subjects with AE leading to discontinuation: Proctalgia (100 mg BID, through Week 56): 0
Subjects with AE leading to discontinuation: Psoriasis (100 mg BID, through Week 56): 0
Subjects with AE leading to discontinuation: Psychiatric disorders (100 mg BID, through Week 56): 0
Subjects with AE leading to discontinuation: Skin and subcutaneous tissue disorders (100 mg BID, through Week 56): 0
Subjects with AE leading to discontinuation: Suicide attempt (100 mg BID, through Week 56): 0
Subjects with AE leading to discontinuation: Transaminases increased (100 mg BID, through Week 56): 0
Subjects with AE leading to discontinuation: Vertigo (100 mg BID, through Week 56): 0
Subjects with AE leading to discontinuation: Vomiting (100 mg BID, through Week 56): 0
Subjects with AE leading to discontinuation: Weight increased (100 mg BID, through Week 56): 0
Subjects with treatment-emergent AE: Bronchitis (100 mg BID, through Week 56): 0
Subjects with treatment-emergent AE: Gastrointestinal disorders (100 mg BID, through Week 56): 7
Subjects with treatment-emergent AE: Nasopharyngitis (100 mg BID, through Week 56): 5
Subjects with treatment-emergent serious AE: COVID-19 (100 mg BID, through Week 56): 0
Subjects with treatment-emergent serious AE: Cardiac disorders (100 mg BID, through Week 56): 0
Subjects with treatment-emergent serious AE: Cerebrovascular accident (100 mg BID, through Week 56): 0
Subjects with treatment-emergent serious AE: Coronary artery disease (100 mg BID, through Week 56): 0
Subjects with treatment-emergent serious AE: Diverticulitis (100 mg BID, through Week 56): 0
Subjects with treatment-emergent serious AE: Foot deformity (100 mg BID, through Week 56): 0
Subjects with treatment-emergent serious AE: General disorders and administration site conditions (100 mg BID, through Week 56): 0
Subjects with treatment-emergent serious AE: Infected cyst (100 mg BID, through Week 56): 0
Subjects with treatment-emergent serious AE: Infections and infestations (100 mg BID, through Week 56): 0
Subjects with treatment-emergent serious AE: Injury, poisoning and procedural complications (100 mg BID, through Week 56): 0
Subjects with treatment-emergent serious AE: Intervertebral disc protrusion (100 mg BID, through Week 56): 0
Subjects with treatment-emergent serious AE: Ligament injury (100 mg BID, through Week 56): 0
Subjects with treatment-emergent serious AE: Musculoskeletal and connective tissue disorders (100 mg BID, through Week 56): 0
Subjects with treatment-emergent serious AE: Nervous system disorders (100 mg BID, through Week 56): 0
Subjects with treatment-emergent serious AE: Non-cardiac chest pain (100 mg BID, through Week 56): 0
Subjects with treatment-emergent serious AE: Psychiatric disorders (100 mg BID, through Week 56): 0
Subjects with treatment-emergent serious AE: Respiratory, thoracic and mediastinal disorders (100 mg BID, through Week 56): 0
Subjects with treatment-emergent serious AE: Suicide attempt (100 mg BID, through Week 56): 0
Subjects with treatment-emergent serious AE: Tonsillar hypertrophy (100 mg BID, through Week 56): 0
Subjects with treatment-emergent serious AE: Ventricular dysfunction (100 mg BID, through Week 56): 0
Suicide attempt: number of subjects (100 mg BID, through Week 56): 0
Sunburn: number of subjects (100 mg BID, through Week 56): 0
Thrombocytopenia: number of subjects (100 mg BID, through Week 56): 0
Thrombocytosis: % of subjects (100 mg BID, through Week 56): (2.4%)
Thrombocytosis: number of subjects (100 mg BID, through Week 56): 1
Tonsillar hypertrophy: number of subjects (100 mg BID, through Week 56): 0
Tooth fracture: % of subjects (100 mg BID, through Week 56): (2.4%)
Tooth fracture: number of subjects (100 mg BID, through Week 56): 1
Type 2 diabetes mellitus: % of subjects (100 mg BID, through Week 56): (2.4%)
Type 2 diabetes mellitus: number of subjects (100 mg BID, through Week 56): 1
Urinary tract disorder: % of subjects (100 mg BID, through Week 56): (2.4%)
Urinary tract disorder: number of subjects (100 mg BID, through Week 56): 1
Uterine leiomyoma: % of subjects (100 mg BID, through Week 56): (2.4%)
Uterine leiomyoma: number of subjects (100 mg BID, through Week 56): 1
Vascular disorders: % of subjects (100 mg BID, through Week 56): (4.8%)
Vascular disorders: number of subjects (100 mg BID, through Week 56): 2
Ventricular dysfunction: number of subjects (100 mg BID, through Week 56): 0
Vertigo: number of subjects (100 mg BID, through Week 56): 0
Vitamin D deficiency: number of subjects (100 mg BID, through Week 56): 0
Number of subjects with treatment-emergent AE: Cholelithiasis [1]: 1
Number of subjects with treatment-emergent AE: Ear and labyrinth disorders [1]: 1
Number of subjects with treatment-emergent AE: Endocrine disorders [1]: 0
Number of subjects with treatment-emergent AE: Eye disorders [1]: 0
Number of subjects with treatment-emergent AE: Eyelid skin dryness [1]: 0
Number of subjects with treatment-emergent AE: Goiter [1]: 0
Number of subjects with treatment-emergent AE: Hepatobiliary disorders [1]: 1
Number of subjects with treatment-emergent AE: Hypertransaminasemia [1]: 0
Number of subjects with treatment-emergent AE: Immune system disorders [1]: 0
Number of subjects with treatment-emergent AE: Insomnia [1]: 0
Number of subjects with treatment-emergent AE: Ocular cyst [1]: 0
Number of subjects with treatment-emergent AE: Psychiatric disorders [1]: 0
Number of subjects with treatment-emergent AE: Retinal vein occlusion [1]: 0
Number of subjects with treatment-emergent AE: Seasonal allergy [1]: 0
Number of subjects with treatment-emergent AE: Vertigo [1]: 1
Subjects with treatment-emergent AE: Cholelithiasis (%) [1]: (2.5%)
Subjects with treatment-emergent AE: Ear and labyrinth disorders (%) [1]: (2.5%)
Subjects with treatment-emergent AE: Hepatobiliary disorders (%) [1]: (2.5%)
Subjects with treatment-emergent AE: Vertigo (%) [1]: (2.5%)
Subjects with adverse event: Alanine aminotransferase increased [2]: 0
Subjects with adverse event: Aspartate aminotransferase increased [2]: 0
Subjects with adverse event: Bronchitis [2]: 0
Subjects with adverse event: Meniscus injury [2]: 0
Subjects with adverse event: Sinusitis [2]: 0
Subjects with adverse event: Urinary tract infection [2]: 0
Subjects with serious adverse event: Cerebrovascular accident [2]: 0
Subjects with serious adverse event: Coronary artery disease [2]: 0
Subjects with serious adverse event: Foot deformity [2]: 0
Subjects with serious adverse event: Ligament injury [2]: 0
Subjects with serious adverse event: Non-cardiac chest pain [2]: 0
Subjects with serious adverse event: Tonsillar hypertrophy [2]: 0
Subjects with serious adverse event: Uterine leiomyoma [2]: 0
Subjects with serious adverse event: Ventricular dysfunction [2]: 0
Subjects with AE leading to discontinuation: Alanine aminotransferase increased (100 mg QD, Week 16-56): 0
Subjects with AE leading to discontinuation: Aspartate aminotransferase increased (100 mg QD, Week 16-56): 0
Subjects with AE leading to discontinuation: Asthenia (100 mg QD, Week 16-56): 0
Subjects with AE leading to discontinuation: Gamma-glutamyltransferase increased (100 mg QD, Week 16-56): 0
Subjects with AE leading to discontinuation: Insomnia (100 mg QD, Week 16-56): 0
Subjects with AE leading to discontinuation: Investigations (100 mg QD, Week 16-56): 0
Subjects with AE leading to discontinuation: Proctalgia (100 mg QD, Week 16-56): 0
Subjects with AE leading to discontinuation: Psoriasis (100 mg QD, Week 16-56): 0
Subjects with AE leading to discontinuation: Psychiatric disorders (100 mg QD, Week 16-56): 0
Subjects with AE leading to discontinuation: Skin and subcutaneous tissue disorders (100 mg QD, Week 16-56): 0
Subjects with COVID-19 associated AE of interest: SARS-CoV-2 test positive (100 mg QD, Week 16-56): 0
Subjects with treatment-emergent AE: Alanine aminotransferase increased (100 mg QD, Week 16-56): 0
Subjects with treatment-emergent AE: Aspartate aminotransferase increased (100 mg QD, Week 16-56): 0
